Where two headings read alike, the source gives them in different places. Positions of bridges follow the written chain, without caps; N, C: chain ends. Non-standard residues stand in square brackets, D forms with d. Residues, ends and D or L forms follow the SMILES beside them. No end group written: not given here. Abu = CC[C@H](N)C(=O)O

The target of the test is hNav1.7 (Homo sapiens, UniProt Q15858). Put plainly: cell-based. It counts as cell-based.
The mark [1] stands for this setting: IonWorks Quattro, Use, read-out: IWQ Use Nav1.7.

Sequence of hNav1.7 (Q15858 whole entry, looked up): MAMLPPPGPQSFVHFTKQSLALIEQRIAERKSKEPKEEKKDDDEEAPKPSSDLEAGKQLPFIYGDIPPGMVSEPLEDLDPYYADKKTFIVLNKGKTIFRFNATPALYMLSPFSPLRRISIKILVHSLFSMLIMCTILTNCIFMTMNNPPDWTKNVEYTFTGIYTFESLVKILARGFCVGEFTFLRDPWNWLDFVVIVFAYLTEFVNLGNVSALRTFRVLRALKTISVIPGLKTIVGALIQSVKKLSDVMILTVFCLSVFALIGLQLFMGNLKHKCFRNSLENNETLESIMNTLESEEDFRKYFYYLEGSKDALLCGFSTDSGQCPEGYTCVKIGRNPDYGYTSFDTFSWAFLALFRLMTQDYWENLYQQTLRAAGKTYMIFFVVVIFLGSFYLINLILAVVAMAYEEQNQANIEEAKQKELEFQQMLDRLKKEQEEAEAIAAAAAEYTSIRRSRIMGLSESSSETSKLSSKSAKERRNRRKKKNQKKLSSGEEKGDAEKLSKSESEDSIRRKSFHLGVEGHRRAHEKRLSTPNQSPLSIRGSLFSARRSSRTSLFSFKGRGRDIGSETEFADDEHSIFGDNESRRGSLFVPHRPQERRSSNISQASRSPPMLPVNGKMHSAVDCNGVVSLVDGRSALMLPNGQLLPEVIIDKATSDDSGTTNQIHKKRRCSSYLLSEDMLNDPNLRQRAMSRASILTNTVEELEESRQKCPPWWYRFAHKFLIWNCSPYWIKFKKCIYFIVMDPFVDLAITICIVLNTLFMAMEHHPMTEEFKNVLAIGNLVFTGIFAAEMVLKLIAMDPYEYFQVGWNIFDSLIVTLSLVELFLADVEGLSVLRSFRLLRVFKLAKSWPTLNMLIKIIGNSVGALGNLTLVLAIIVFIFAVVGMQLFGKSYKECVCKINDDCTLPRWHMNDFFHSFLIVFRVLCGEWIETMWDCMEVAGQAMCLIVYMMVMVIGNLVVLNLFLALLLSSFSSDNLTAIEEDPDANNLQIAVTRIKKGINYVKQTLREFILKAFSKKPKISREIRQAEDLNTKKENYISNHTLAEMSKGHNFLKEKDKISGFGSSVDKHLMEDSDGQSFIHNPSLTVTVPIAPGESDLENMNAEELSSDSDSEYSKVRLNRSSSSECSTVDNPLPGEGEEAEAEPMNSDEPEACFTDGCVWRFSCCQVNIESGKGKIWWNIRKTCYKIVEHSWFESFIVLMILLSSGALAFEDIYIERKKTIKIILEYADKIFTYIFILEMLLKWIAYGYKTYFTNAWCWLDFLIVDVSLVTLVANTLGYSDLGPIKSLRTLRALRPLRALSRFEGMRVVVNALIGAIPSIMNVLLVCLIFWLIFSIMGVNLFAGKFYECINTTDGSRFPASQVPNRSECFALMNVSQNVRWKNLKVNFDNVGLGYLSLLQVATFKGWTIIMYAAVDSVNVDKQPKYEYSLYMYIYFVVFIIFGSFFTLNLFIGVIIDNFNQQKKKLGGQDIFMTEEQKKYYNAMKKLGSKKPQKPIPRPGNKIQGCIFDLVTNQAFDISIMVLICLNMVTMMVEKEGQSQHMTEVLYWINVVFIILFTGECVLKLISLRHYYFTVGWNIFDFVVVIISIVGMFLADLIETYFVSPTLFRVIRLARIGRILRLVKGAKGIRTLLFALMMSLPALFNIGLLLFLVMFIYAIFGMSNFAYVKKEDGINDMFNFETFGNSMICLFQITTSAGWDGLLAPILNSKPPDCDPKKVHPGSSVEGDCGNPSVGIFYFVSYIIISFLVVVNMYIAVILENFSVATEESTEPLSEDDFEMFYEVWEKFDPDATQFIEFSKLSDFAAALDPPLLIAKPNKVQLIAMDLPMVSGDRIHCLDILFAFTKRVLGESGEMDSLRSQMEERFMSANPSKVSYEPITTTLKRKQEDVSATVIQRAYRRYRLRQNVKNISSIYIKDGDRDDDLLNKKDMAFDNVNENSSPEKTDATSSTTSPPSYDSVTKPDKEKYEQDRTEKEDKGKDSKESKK

Take `CC[C@H](C)[C@@H]1NC(=O)[C@@H]2CSSC[C@@H]3NC(=O)[C@H](C(C)C)NC(=O)[C@H](CC(C)C)NC(=O)[C@H](CC(N)=O)NC(=O)[C@@H]4CCCN4C(=O)[C@H](CCCNC(=N)N)NC(=O)[C@H](CSSC[C@H](NC(=O)[C@@H](N)CC(=O)O)C(=O)N[C@@H](CC(C)C)C(=O)NCC(=O)N[C@@H](Cc4ccccc4)C(=O)N[C@@H](CCSC)C(=O)N[C@@H](CCCNC(=N)N)C(=O)N[C@@H](CCCCN)C(=O)N2)NC(=O)[C@H](CSSC[C@@H](C(=O)N[C@@H](CCCCN)C(=O)N[C@@H](Cc2ccc(O)cc2)C(=O)N[C@H](C(N)=O)C(C)C)NC(=O)[C@H](Cc2c[nH]c4ccccc24)NC(=O)[C@H](CCCCN)NC(=O)[C@H](Cc2c[nH]cn2)NC(=O)[C@H]([C@@H](C)O)NC(=O)[C@H](CCCNC(=N)N)NC(=O)[C@H](CO)NC3=O)NC(=O)[C@H](CCCCN)NC(=O)[C@H](CC(=O)O)NC(=O)[C@H](CC(N)=O)NC(=O)[C@H](CC(=O)O)NC(=O)[C@@H]2CCCN2C1=O` [compound 415] (H-DCLGFMRKCIPDNDKCCRPNLVCSRTHKWCKYV-NH2; disulfide 2-17, 9-23, 16-30): where the note is “IonWorks Quattro, use-dependent, […], read-out: IWQ Use Nav1.7 (μm)”, the IC50 turned out to be 2350 nM.
In the case of `CSCC[C@@H]1NC(=O)[C@H](Cc2ccccc2)NC(=O)CNC(=O)[C@H](CC(C)C)NC(=O)[C@@H](NC(=O)[C@@H](N)CC(=O)O)CSSC[C@@H]2NC(=O)[C@@H]3CSSC[C@@H](C(=O)N[C@@H](CCCCN)C(=O)N[C@@H](Cc4ccc(O)cc4)C(=O)N[C@H](C(=O)N[C@@H](Cc4ccccc4)C(N)=O)C(C)C)NC(=O)[C@H](Cc4c[nH]c5ccccc45)NC(=O)[C@H](CCCCN)NC(=O)[C@H](Cc4c[nH]cn4)NC(=O)[C@H]([C@@H](C)O)NC(=O)[C@H](CCCNC(=N)N)NC(=O)[C@H](CO)NC(=O)[C@H](CSSC[C@H](NC(=O)[C@H](CCCCN)NC(=O)[C@H](CCCNC(=N)N)NC1=O)C(=O)N[C@@H](Cc1ccc(O)cc1)C(=O)N1CCC[C@H]1C(=O)N[C@@H](CC(=O)O)C(=O)N[C@@H](CC(N)=O)C(=O)N[C@@H](CC(=O)O)C(=O)N[C@@H](CCCCN)C(=O)N3)NC(=O)[C@H](C(C)C)NC(=O)[C@H](CC(C)C)NC(=O)[C@H](CC(N)=O)NC(=O)[C@@H]1CCCN1C(=O)[C@H](CCCNC(=N)N)NC2=O` [compound 299] (H-DCLGFMRKCYPDNDKCCRPNLVCSRTHKWCKYVF-NH2; disulfide 2-17, 9-23, 16-30), the IC50 under setting [1] is 140 nM.
The same measure, in the same setting: the value for `CC[C@H](C)[C@@H]1NC(=O)[C@@H]2CSSC[C@@H]3NC(=O)[C@H](C(C)C)NC(=O)[C@H](CC(C)C)NC(=O)[C@H](CC(N)=O)NC(=O)[C@H](CCCNC(=N)N)NC(=O)[C@H](CCCNC(=N)N)NC(=O)[C@H](CSSC[C@H](NC(=O)[C@@H](N)CC(=O)O)C(=O)N[C@@H](CC(C)C)C(=O)NCC(=O)N[C@@H](Cc4ccccc4)C(=O)N[C@@H](CCSC)C(=O)N[C@@H](CCCNC(=N)N)C(=O)N[C@@H](CCCCN)C(=O)N2)NC(=O)[C@H](CSSC[C@@H](C(=O)N[C@@H](CCCCN)C(=O)N[C@@H](Cc2ccc(O)cc2)C(=O)N[C@H](C(=O)N[C@@H](Cc2ccccc2)C(N)=O)C(C)C)NC(=O)[C@H](Cc2c[nH]c4ccccc24)NC(=O)[C@H](CCCCN)NC(=O)[C@H](Cc2c[nH]cn2)NC(=O)[C@H]([C@@H](C)O)NC(=O)[C@H](CCCNC(=N)N)NC(=O)[C@H](CO)NC3=O)NC(=O)[C@H](CCCCN)NC(=O)[C@H](CC(=O)O)NC(=O)[C@H](CC(N)=O)NC(=O)[C@H](CC(=O)O)NC(=O)[C@@H]2CCCN2C1=O` [compound 157] (H-DCLGFMRKCIPDNDKCCRRNLVCSRTHKWCKYVF-NH2; disulfide 2-17, 9-23, 16-30) was 70 nM; that for `CC[C@H](C)[C@@H]1NC(=O)[C@@H]2CSSC[C@@H]3NC(=O)[C@H](C(C)C)NC(=O)[C@H](CC(C)C)NC(=O)[C@H](CC(N)=O)NC(=O)[C@@H]4CCCN4C(=O)[C@H](CCCNC(=N)N)NC(=O)[C@H](CSSC[C@H](NC(=O)[C@@H](N)CC(=O)O)C(=O)N[C@@H](CC(C)C)C(=O)NCC(=O)N[C@@H](Cc4ccccc4)C(=O)N[C@@H](CCSC)C(=O)N[C@@H](CCCNC(=N)N)C(=O)N[C@@H](CCCCN)C(=O)N2)NC(=O)[C@H](CSSC[C@@H](C(=O)N[C@@H](CCCCN)C(=O)N[C@@H](Cc2ccc(O)cc2)C(=O)N[C@H](C(=O)N[C@@H](Cc2ccccc2)C(N)=O)C(C)C)NC(=O)[C@H](Cc2c[nH]c4ccccc24)NC(=O)[C@H](CCCCN)NC(=O)[C@H](Cc2c[nH]cn2)NC(=O)[C@H]([C@@H](C)O)NC(=O)[C@H](CCCNC(=N)N)NC(=O)[C@H](CO)NC3=O)NC(=O)[C@H](CCCCN)NC(=O)[C@H](CC(=O)O)NC(=O)[C@H](CCCCN)NC(=O)[C@H](CC(=O)O)NC(=O)[C@@H]2CCCN2C1=O` [compound 48] (H-DCLGFMRKCIPDKDKCCRPNLVCSRTHKWCKYVF-NH2; disulfide 2-17, 9-23, 16-30) was 210 nM.
“[Ser-Ser19]GpTx-1 (DCLGFMRKCIPDNDKCCRSSNLVCSRTHKWCKYVF-NH2; ends and bridges not checked)”: the “activity against NaV1.7 relative to GpTx-1, in words” value is “without substantial impact on the activity”.
Still for that read-out and setting: the value for “[2-Abu-2,17]GpTx-1 (D[Abu]LGFMRKCIPDNDKC[Abu]RPNLVCSRTHKWCKYVF-NH2; ends and bridges not checked)” was “retains significant activity”.
For the compound `CC[C@H](C)[C@@H]1NC(=O)[C@@H]2CSSC[C@@H]3NC(=O)[C@H](C(C)C)NC(=O)[C@H](CC(C)C)NC(=O)[C@H](CC(N)=O)NC(=O)[C@@H]4CCCN4C(=O)[C@H](CCCNC(=N)N)NC(=O)[C@H](CSSC[C@H](NC(=O)[C@@H](N)CC(=O)O)C(=O)N[C@@H](CC(C)C)C(=O)NCC(=O)N[C@@H](Cc4ccccc4)C(=O)N[C@@H](CCSC)C(=O)N[C@@H](CCCNC(=N)N)C(=O)N[C@@H](CCCCN)C(=O)N2)NC(=O)[C@H](CSSC[C@@H](C(=O)N[C@@H](CCCCN)C(=O)N[C@@H](CCCNC(=N)N)C(=O)N[C@H](C(=O)N[C@@H](Cc2ccccc2)C(N)=O)C(C)C)NC(=O)[C@H](Cc2c[nH]c4ccccc24)NC(=O)[C@H](CCCCN)NC(=O)[C@H](Cc2c[nH]cn2)NC(=O)[C@H]([C@@H](C)O)NC(=O)[C@H](CCCNC(=N)N)NC(=O)[C@H](CO)NC3=O)NC(=O)[C@H](CCCCN)NC(=O)[C@H](CC(=O)O)NC(=O)[C@H](CC(N)=O)NC(=O)[C@H](CC(=O)O)NC(=O)[C@@H]2CCCN2C1=O` [compound 159] (H-DCLGFMRKCIPDNDKCCRPNLVCSRTHKWCKRVF-NH2; disulfide 2-17, 9-23, 16-30), the IC50 (read-out: IWQ Use Nav1.7) amounted to 1020 nM.
In the case of `CSCC[C@@H]1NC(=O)[C@H](Cc2ccccc2)NC(=O)CNC(=O)[C@H](CC(C)C)NC(=O)[C@@H](NC(=O)[C@@H](N)CC(=O)O)CSSC[C@@H]2NC(=O)[C@@H]3CSSC[C@@H](C(=O)N[C@@H](CCCCN)C(=O)N[C@@H](Cc4ccc(O)cc4)C(=O)N[C@H](C(=O)N[C@@H](Cc4ccccc4)C(N)=O)C(C)C)NC(=O)[C@H](Cc4c[nH]c5ccccc45)NC(=O)[C@H](CCCCN)NC(=O)[C@H](Cc4c[nH]cn4)NC(=O)[C@H]([C@@H](C)O)NC(=O)[C@H](CCCNC(=N)N)NC(=O)[C@H](CO)NC(=O)[C@H](CSSC[C@H](NC(=O)[C@H](CCCCN)NC(=O)[C@H](CCCNC(=N)N)NC1=O)C(=O)N[C@@H](CO)C(=O)N1CCC[C@H]1C(=O)N[C@@H](CC(=O)O)C(=O)N[C@@H](CC(N)=O)C(=O)N[C@@H](CC(=O)O)C(=O)N[C@@H](CCCCN)C(=O)N3)NC(=O)[C@H](C(C)C)NC(=O)[C@H](CC(C)C)NC(=O)[C@H](CC(N)=O)NC(=O)[C@@H]1CCCN1C(=O)[C@H](CCCNC(=N)N)NC2=O` [compound 305] (H-DCLGFMRKCSPDNDKCCRPNLVCSRTHKWCKYVF-NH2; disulfide 2-17, 9-23, 16-30), the IC50 under setting [1] came out at 50 nM.
Consider `CC[C@H](C)[C@@H]1NC(=O)[C@@H]2CSSC[C@@H]3NC(=O)[C@H](C(C)C)NC(=O)[C@H](CC(C)C)NC(=O)[C@H](CC(N)=O)NC(=O)[C@@H]4CCCN4C(=O)[C@H](CCCNC(=N)N)NC(=O)[C@H](CSSC[C@H](NC(=O)[C@@H](N)CC(=O)O)C(=O)N[C@@H](CC(C)C)C(=O)NCC(=O)N[C@@H](Cc4ccccc4)C(=O)N[C@@H](CCSC)C(=O)N[C@@H](CCCNC(=N)N)C(=O)N[C@@H](CCCCN)C(=O)N2)NC(=O)[C@H](CSSC[C@@H](C(=O)N[C@@H](CCCCN)C(=O)N[C@@H](C)C(=O)N[C@H](C(=O)N[C@@H](Cc2ccccc2)C(N)=O)C(C)C)NC(=O)[C@H](Cc2c[nH]c4ccccc24)NC(=O)[C@H](CCCCN)NC(=O)[C@H](Cc2c[nH]cn2)NC(=O)[C@H]([C@@H](C)O)NC(=O)[C@H](CCCNC(=N)N)NC(=O)[C@H](CO)NC3=O)NC(=O)[C@H](CCCCN)NC(=O)[C@H](CC(=O)O)NC(=O)[C@H](CC(N)=O)NC(=O)[C@H](CC(=O)O)NC(=O)[C@@H]2CCCN2C1=O` [compound 14] (H-DCLGFMRKCIPDNDKCCRPNLVCSRTHKWCKAVF-NH2; disulfide 2-17, 9-23, 16-30), for which the IC50 (read-out: IWQ Use Nav1.7) came out at 800 nM.
For the compound `CC[C@H](C)[C@@H]1NC(=O)[C@@H]2CSSC[C@@H]3NC(=O)[C@H](C(C)C)NC(=O)[C@H](CC(C)C)NC(=O)[C@H](CC(N)=O)NC(=O)[C@@H]4CCCN4C(=O)[C@H](CCCNC(=N)N)NC(=O)[C@H](CSSC[C@H](NC(=O)[C@H](C)N)C(=O)N[C@@H](CC(C)C)C(=O)NCC(=O)N[C@@H](Cc4ccccc4)C(=O)N[C@@H](CCSC)C(=O)N[C@@H](CCCNC(=N)N)C(=O)N[C@@H](CCCCN)C(=O)N2)NC(=O)[C@H](CSSC[C@@H](C(=O)N[C@@H](CCCCN)C(=O)N[C@@H](Cc2ccc(O)cc2)C(=O)N[C@H](C(=O)N[C@@H](Cc2ccccc2)C(N)=O)C(C)C)NC(=O)[C@H](Cc2c[nH]c4ccccc24)NC(=O)[C@H](CCCCN)NC(=O)[C@H](Cc2c[nH]cn2)NC(=O)[C@H]([C@@H](C)O)NC(=O)[C@H](CCCNC(=N)N)NC(=O)[C@H](CO)NC3=O)NC(=O)[C@H](CCCCN)NC(=O)[C@H](CC(=O)O)NC(=O)[C@H](CC(N)=O)NC(=O)[C@H](CC(=O)O)NC(=O)[C@@H]2CCCN2C1=O` [SEQ ID NO: 20] (H-ACLGFMRKCIPDNDKCCRPNLVCSRTHKWCKYVF-NH2; disulfide 2-17, 9-23, 16-30), the IC50 (IonWorks Quattro, clamped to −110 mV, depolarized to −10 mV, 5 min after compound, n=2, read-out: IWQ Use Nav1.7) worked out at 100 nM.

The record behind these values is patent US9340590B2 (priority 2011, dated 2016).
